Data from patent publication US20170368082A1, “FORMULATIONS OF BRINCIDOFOVIR” (priority 2016, published 2017).
Several values for one entry are separate records, joined by “and”; a condition that tells them apart may be missing. Equal entries are not always repeated. Where two headings read alike, the source gives them in different places.

Test: Phase 2 toxicokinetics of brincidofovir and cidofovir in plasma
Format: in vivo, Sprague-Dawley CD rats
Parameters: Imputed Concentration, Mean: unit: ng/mL
Conditions: for cidofovir Concentration (C): individual animals; for concentration at 1 h / concentration at 2 h / concentration at 8 h / concentration at 24 h / concentration at 0 h: Sprague-Dawley CD, rat, intravenous, 1 mg/kg; for concentration at 1 h / concentration at 2 h / concentration at 8 h / concentration at 24 h / concentration at 0 h / Imputed Concentration, individual animals / Imputed Concentration, Mean: plasma, BLQ imputed as zero
Procedure: Plasma samples (108) were collected 2 hours following the initiation of dosing on Day 1 and Day 7 (Group 1), or at 1, 2, 8, and 24 hours following the initiation of dosing on Day 1, and prior to administration and at 2, 8, and 24 hours following the initiation of dosing on Day 7 (Groups 2 and 3), and analyzed to determine the concentrations of brincidofovir and the metabolite, cidofovir), by LC/MS/MS.
Approximately 0.4 mL of whole blood was obtained via the tail vein from each animal at each time point. Animals were not fasted prior to blood collection. Blood was collected into tubes containing K2EDTA anticoagulant and placed on wet ice in an upright position, per facility SOP prior to processing. Plasma was separated by centrifugation (10 minutes at approximately 2000 g, at approximately 2-8° C.). Approximately 0.10 mL of plasma was transferred into a single cryotube appropriately labeled with study number, animal number, time point, date of sampling and sample type. Remaining plasma was transferred into a second cryotube and retained as a backup sample. Plasma frozen at approximately −80±10° C. within approximately 2 hours after collection of each blood sample until analysis. Animals were euthanized (CO2 inhalation) after the final blood collection.
In general, TK parameters were estimated using mean plasma concentrations of brincidofovir and cidofovir derived from the composite blood sampling design using Phoenix WinNonLin (V 6.3).
A composite blood sampling design was used such that each rat was sampled twice per sampling day. Blood was collected via tail vein from unanesthetized animals into tubes containing anticoagulant and placed on wet ice in an upright position. Animals were not fasted prior to blood collection. Plasma was separated by centrifugation (for 10 minutes at approximately 2000 g, at approximately 2-8° C.), and transferred into individually labeled cryotubes. All cryotubes containing the collected plasma samples were appropriately labeled as to study number, animal number, time point, date of sampling and sample type. All plasma samples were obtained and frozen at approximately −80° C. (±10° C.) within approximately 2 hours after collection of each blood sample until analysis.
Rat plasma bioanalysis was conducted by Pyxant Laboratories. Plasma samples were analyzed for concentrations of brincidofovir and cidofovir using a method based upon protein precipitation extraction followed by LC-MS/MS analysis; calibration ranges for brincidofovir and cidofovir were 1.00-1500 ng/mL and 5.00-750 ng/mL, respectively, (Pyxant study number 3025) for a 50 μL aliquot of rat plasma. Sample analysis for ISR was not performed as part of this non-GLP study.
For the generation of Mean Profiles, all sample concentrations that were below the limit of quantitation (BLQ) were set to 0.
All pharmacokinetic parameter estimates were completed using a Non-Compartmental Model (Model 200-202 for IV infusion administration). The AUClast and AUCinf were calculated using the linear up log down trapezoidal rule.

[1] = brincidofovir 1 mg/kg 2-h IV infusion, female rats, Day 7, 0 h
[2] = brincidofovir 1 mg/kg 2-h IV infusion, female rats, Day 7, 2 h
[3] = brincidofovir 1 mg/kg 2-h IV infusion, female rats, Day 7, 8 h
[4] = brincidofovir 1 mg/kg 2-h IV infusion, female rats, Day 7, 24 h
[5] = brincidofovir 1 mg/kg 2-h IV infusion, male rats, Day 7, 2 h
[6] = brincidofovir 1 mg/kg 2-h IV infusion, male rats, Day 7, 8 h
[7] = brincidofovir 1 mg/kg 2-h IV infusion, male rats, Day 7, 24 h
[8] = brincidofovir 15 mg/kg 2-h IV infusion, female rats, Day 1, 1 h
[9] = brincidofovir 15 mg/kg 2-h IV infusion, female rats, Day 1, 2 h
[10] = brincidofovir 15 mg/kg 2-h IV infusion, female rats, Day 1, 8 h
[11] = brincidofovir 15 mg/kg 2-h IV infusion, female rats, Day 1, 24 h
[12] = brincidofovir 15 mg/kg 2-h IV infusion, female rats, Day 7, 0 h
[13] = brincidofovir 15 mg/kg 2-h IV infusion, female rats, Day 7, 2 h
[14] = brincidofovir 15 mg/kg 2-h IV infusion, male rats, Day 1, 1 h
[15] = brincidofovir 15 mg/kg 2-h IV infusion, male rats, Day 1, 2 h
[16] = brincidofovir 15 mg/kg 2-h IV infusion, male rats, Day 1, 8 h
[17] = brincidofovir 15 mg/kg 2-h IV infusion, male rats, Day 1, 24 h
[18] = brincidofovir 15 mg/kg 2-h IV infusion, male rats, Day 7, 0 h
[19] = brincidofovir 15 mg/kg 2-h IV infusion, male rats, Day 7, 2 h

Nc1ccn(C[C@@H](CO)OCP(=O)(O)O)c(=O)n1 [Cidofovir]
cidofovir Concentration (C) (brincidofovir 1 mg/kg, Female, Day 1, 1 h): BLQ
cidofovir Concentration (C) (brincidofovir 1 mg/kg, Female, Day 1, 8 h): BLQ
cidofovir Concentration (C) (brincidofovir 1 mg/kg, Female, Day 1, 24 h): BLQ
cidofovir Concentration (C) (brincidofovir 1 mg/kg, Female, Day 7, 0 h): BLQ
cidofovir Concentration (C) (brincidofovir 1 mg/kg, Female, Day 7, 24 h): BLQ
cidofovir Concentration (C) (brincidofovir 1 mg/kg, Male, Day 1, 1 h): BLQ
cidofovir Concentration (C) (brincidofovir 1 mg/kg, Male, Day 1, 2 h): BLQ
cidofovir Concentration (C) (brincidofovir 1 mg/kg, Male, Day 1, 8 h): BLQ
cidofovir Concentration (C) (brincidofovir 1 mg/kg, Male, Day 1, 24 h): BLQ
cidofovir Concentration (C) (brincidofovir 1 mg/kg, Male, Day 7, 0 h): BLQ
cidofovir Concentration (C) (brincidofovir 1 mg/kg, Male, Day 7, 2 h): BLQ
cidofovir Concentration (C) (brincidofovir 1 mg/kg, Male, Day 7, 24 h): BLQ
cidofovir Concentration (C) (brincidofovir 15 mg/kg, Female, Day 7, 0 h): BLQ
cidofovir Concentration (C) (brincidofovir 15 mg/kg, Male, Day 1, 1 h): BLQ
cidofovir Concentration (C) (brincidofovir 15 mg/kg, Male, Day 7, 0 h): BLQ
concentration at 1 h (female, brincidofovir 1 mg/kg 2-h IV infusion, female rats, Day 1, 1 h, read-out: Imputed Concentration, Mean): 0 ng/mL
concentration at 1 h (female, brincidofovir 1 mg/kg 2-h IV infusion, female rats, Day 1, 1 h, read-out: Imputed Concentration, individual animals): 0 ng/mL
concentration at 2 h (female, brincidofovir 1 mg/kg 2-h IV infusion, female rats, Day 1, 2 h, read-out: Imputed Concentration, Mean): 9.35 ng/mL
concentration at 2 h (female, brincidofovir 1 mg/kg 2-h IV infusion, female rats, Day 1, 2 h, read-out: Imputed Concentration, individual animals): 9.62 ng/mL
concentration at 8 h (female, brincidofovir 1 mg/kg 2-h IV infusion, female rats, Day 1, 8 h, read-out: Imputed Concentration, Mean): 4.24 ng/mL
concentration at 24 h (female, brincidofovir 1 mg/kg 2-h IV infusion, female rats, Day 1, 24 h, read-out: Imputed Concentration, Mean): 0 ng/mL
concentration at 24 h (female, brincidofovir 1 mg/kg 2-h IV infusion, female rats, Day 1, 24 h, read-out: Imputed Concentration, individual animals): 0 ng/mL
concentration at 0 h (female, brincidofovir 1 mg/kg 2-h IV infusion, female rats, Day 7, 0 h, read-out: Imputed Concentration, individual animals): 0 ng/mL
concentration at 1 h (male, brincidofovir 1 mg/kg 2-h IV infusion, male rats, Day 1, 1 h, read-out: Imputed Concentration, Mean): 0 ng/mL
concentration at 1 h (male, brincidofovir 1 mg/kg 2-h IV infusion, male rats, Day 1, 1 h, read-out: Imputed Concentration, individual animals): 0 ng/mL
concentration at 2 h (male, brincidofovir 1 mg/kg 2-h IV infusion, male rats, Day 1, 2 h, read-out: Imputed Concentration, Mean): 0 ng/mL
concentration at 2 h (male, brincidofovir 1 mg/kg 2-h IV infusion, male rats, Day 1, 2 h, read-out: Imputed Concentration, individual animals): 0 ng/mL
concentration at 8 h (male, brincidofovir 1 mg/kg 2-h IV infusion, male rats, Day 1, 8 h, read-out: Imputed Concentration, Mean): 1.95 ng/mL
concentration at 24 h (male, brincidofovir 1 mg/kg 2-h IV infusion, male rats, Day 1, 24 h, read-out: Imputed Concentration, Mean): 0 ng/mL
concentration at 24 h (male, brincidofovir 1 mg/kg 2-h IV infusion, male rats, Day 1, 24 h, read-out: Imputed Concentration, individual animals): 0 ng/mL
concentration at 0 h (male, brincidofovir 1 mg/kg 2-h IV infusion, male rats, Day 7, 0 h, read-out: Imputed Concentration, Mean): 0 ng/mL
concentration at 0 h (male, brincidofovir 1 mg/kg 2-h IV infusion, male rats, Day 7, 0 h, read-out: Imputed Concentration, individual animals): 0 ng/mL
Imputed Concentration, individual animals (brincidofovir 1 mg/kg 2-h IV infusion, female rats, Day 1, 1 h): 0.00 ng/mL
Imputed Concentration, individual animals (brincidofovir 1 mg/kg 2-h IV infusion, female rats, Day 1, 2 h): 6.22 ng/mL and 12.2 ng/mL
Imputed Concentration, individual animals (brincidofovir 1 mg/kg 2-h IV infusion, female rats, Day 1, 8 h): 7.12 ng/mL and 5.60 ng/mL and 0.00 ng/mL
Imputed Concentration, individual animals (brincidofovir 1 mg/kg 2-h IV infusion, female rats, Day 1, 24 h): 0.00 ng/mL
Imputed Concentration, Mean [1]: 0.00 ng/mL
Imputed Concentration, individual animals [1]: 0.00 ng/mL
Imputed Concentration, Mean [2]: 15.0 ng/mL
Imputed Concentration, individual animals [2]: 13.5 ng/mL and 13.8 ng/mL and 17.6 ng/mL
Imputed Concentration, Mean [3]: 7.57 ng/mL
Imputed Concentration, individual animals [3]: 9.51 ng/mL and 7.84 ng/mL and 5.36 ng/mL
Imputed Concentration, Mean [4]: 0.00 ng/mL
Imputed Concentration, individual animals [4]: 0.00 ng/mL
Imputed Concentration, individual animals (brincidofovir 1 mg/kg 2-h IV infusion, male rats, Day 1, 1 h): 0.00 ng/mL
Imputed Concentration, individual animals (brincidofovir 1 mg/kg 2-h IV infusion, male rats, Day 1, 2 h): 0.00 ng/mL
Imputed Concentration, individual animals (brincidofovir 1 mg/kg 2-h IV infusion, male rats, Day 1, 8 h): 5.85 ng/mL and 0.00 ng/mL (2×)
Imputed Concentration, individual animals (brincidofovir 1 mg/kg 2-h IV infusion, male rats, Day 1, 24 h): 0.00 ng/mL
Imputed Concentration, individual animals (brincidofovir 1 mg/kg 2-h IV infusion, male rats, Day 7, 0 h): 0.00 ng/mL
Imputed Concentration, Mean [5]: 0.00 ng/mL
Imputed Concentration, individual animals [5]: 0.00 ng/mL
Imputed Concentration, Mean [6]: 5.73 ng/mL
Imputed Concentration, individual animals [6]: 5.67 ng/mL and 5.45 ng/mL and 6.07 ng/mL
Imputed Concentration, Mean [7]: 0.00 ng/mL
Imputed Concentration, individual animals [7]: 0.00 ng/mL
Imputed Concentration, Mean [8]: 15.1
Imputed Concentration, individual animals [8]: 14.5 and 20.5 and 10.3
Imputed Concentration, Mean [9]: 28.7
Imputed Concentration, individual animals [9]: 10.9 and 41.2 and 34.1
Imputed Concentration, Mean [10]: 38.6
Imputed Concentration, individual animals [10]: 37.3 and 37.7 and 40.7
Imputed Concentration, Mean [11]: 22.1
Imputed Concentration, individual animals [11]: 24.6 and 23.2 and 18.6
Imputed Concentration, Mean [12]: 0.00
Imputed Concentration, individual animals [12]: 0.00
Imputed Concentration, Mean [13]: 34.5
Imputed Concentration, individual animals [13]: 20.2 and 49.1 and 34.2
Imputed Concentration, individual animals (brincidofovir 15 mg/kg 2-h IV infusion, female rats, Day 7, 8 h): 36.4 and 54.2
Imputed Concentration, Mean [14]: 5.35
Imputed Concentration, individual animals [14]: 8.97 and 0.00 and 7.08
Imputed Concentration, Mean [15]: 18.0
Imputed Concentration, individual animals [15]: 25.9 and 13.1 and 15.1
Imputed Concentration, Mean [16]: 32.8
Imputed Concentration, individual animals [16]: 35.8 and 29.5 and 33.0
Imputed Concentration, Mean [17]: 16.7
Imputed Concentration, individual animals [17]: 20.5 and 14.0 and 15.5
Imputed Concentration, Mean [18]: 0.00
Imputed Concentration, individual animals [18]: 0.00
Imputed Concentration, Mean [19]: 24.0
Imputed Concentration, individual animals [19]: 38.8 and 15.0 and 18.3
Imputed Concentration, individual animals (brincidofovir 15 mg/kg 2-h IV infusion, male rats, Day 7, 8 h): 38.4 and 31.1 and 28.8
